Reference: patent publication US7074789B2, “Kinase inhibitors” (Amgen Inc., priority 1999, dated 2006)
pIC50: −log10 of the molar value. Like-named read-outs stand apart in the source and are kept apart here.

How the values were obtained:
Type in all cases: biochemical
EGFR = target: T1, EGFR (Homo sapiens, UniProt P00533); assay: Kinase inhibition assay (33P transfer), EGFR; settings: Table 2, kinase inhibition class; read-out: EGFR-1
T1 construct: Kinases are expressed as either kinase domains or full length constructs; made in house
Outline: (§1)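 Using immobilised substrate copolymers (poly(Glu,Tyr) 4:1; poly(Arg,Ser) 3:1) and [33P]ATP, purified fusion kinases were allowed to react; plates were then rinsed in 0.5% phosphoric acid and counted in a scintillation detector. Half-maximal inhibition of label transfer defines IC50.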

PDGFRB = target: T2, PDGFRB (Homo sapiens, UniProt P09619); assay: Kinase inhibition assay (33P transfer), PDGFRB; settings: read-out: PDGFRB-1
T2 construct: Kinases are expressed as either kinase domains or full length constructs; made in house

Src = target: T3, Src (Homo sapiens, UniProt P12931); assay: Kinase inhibition assay (33P transfer), Src; settings: Table 6, Src-1 kinase inhibition class
T3 construct: Kinases are expressed as either kinase domains or full length constructs; made in house
Description: (§2) The inhibitor compounds described herein are screened in the following manner. Kinases suitable for use in the following protocol to determine kinase activity of the compounds described herein include, -but are not limited to: Lck, Lyn, Src, Fyn, Syk, Zap-70, Itk, Tec, Btk, EGFR, ErbB2, Kdr, Flt-1, Flt-3, Tek, c-Met, InsR, and AKT.
(§3) Kinases are expressed as either kinase domains or full length constructs fused to glutathione S-transferase (GST) or polyHistidine tagged fusion proteins in either E. colior Baculovirus-High Five expression systems. They are purified to near homogeneity by affinity chromatography essentially as previously described (Lehr et al., 1996; Gish et al., 1995). In some instances, kinases are co-expressed or mixed with purified or partially purified regulatory polypeptides prior to measurement of activity.
(§4) Kinase activity and inhibition are measured essentially by established protocols (Braunwalder et al., 1996). Briefly, The transfer of ^33PO4 from ATP to the synthetic substrates poly(Glu, Tyr) 4:1 or poly(Arg, Ser) 3:1 attached to the bioactive surface of microtiter plates serves as the basis to evaluate enzyme activity. After an incubation period, the amount of phosphate transferred is measured by first washing the plate with 0.5% phosphoric acid, adding liquid scintillant, and then counting in a liquid scintillation detector. The IC50 is determined by the concentration of compound that causes a 50% reduction in the amount of […] incorporated onto the substrate bound to the plate.

c-Met = target: T4, c-Met (Homo sapiens, UniProt P08581); assay: Kinase inhibition assay (33P transfer), c-Met; settings: Table 2, kinase inhibition class; read-out: Met-1
T4 construct: Kinases are expressed as either kinase domains or full length constructs; made in house
Outline: as §1

AKT = target: T5, AKT (Homo sapiens, UniProt Q9Y243); assay: Kinase inhibition assay (33P transfer), AKT; settings: Table 2, kinase inhibition class; read-out: AKT3-1
T5 construct: Kinases are expressed as either kinase domains or full length constructs; made in house
Outline: (§5)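 Recombinant kinase-domain or full-length fusion proteins (GST or His tag) served as enzyme. Substrate poly(Glu,Tyr) 4:1 or poly(Arg,Ser) 3:1 was bound to the plate; transferred 33P was read by liquid scintillation following acid washing.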

Tek = target: T6, Tek (Homo sapiens, UniProt Q02763); assay: Kinase inhibition assay (33P transfer), Tek; settings: read-out: Tek-1
T6 construct: Kinases are expressed as either kinase domains or full length constructs; made in house
Outline: as §1

Hck-1 = target: T7, Hck-1 (Homo sapiens, UniProt P08631); assay: Kinase inhibition assay (33P transfer), Hck; settings: Table 6, Hck-1 kinase inhibition class
T7 construct: Kinases are expressed as either kinase domains or full length constructs; made in house

Lck = target: T8, Lck (Homo sapiens, UniProt P06239); assay: Kinase inhibition assay (33P transfer), Lck; settings: Table 3; read-out: Lck-1
T8 construct: Kinases are expressed as either kinase domains or full length constructs; made in house
Outline: as §5

FGFR1 = target: T9, FGFR1 (Homo sapiens, UniProt P11362); assay: Kinase inhibition assay (33P transfer), FGFR1; settings: read-out: FGFR1-1
T9 construct: Kinases are expressed as either kinase domains or full length constructs; made in house

Flt-1 = target: T10, Flt-1 (Homo sapiens, UniProt P17948); assay: Kinase inhibition assay (33P transfer), Flt-1
T10 construct: Kinases are expressed as either kinase domains or full length constructs; made in house
Description: as §2, §3, §4

Lyn = target: T11, Lyn (Homo sapiens, UniProt P07948); assay: Kinase inhibition assay (33P transfer), Lyn; settings: Table 6, Lyn-1 kinase inhibition class
T11 construct: Kinases are expressed as either kinase domains or full length constructs; made in house
Description: as §2, §3, §4

Zap-70 = target: T12, Zap-70 (Homo sapiens, UniProt P43403); assay: Kinase inhibition assay (33P transfer), Zap-70; settings: read-out: Zap-1
T12 construct: Kinases are expressed as either kinase domains or full length constructs; made in house
T12 sequence (P43403 1-619): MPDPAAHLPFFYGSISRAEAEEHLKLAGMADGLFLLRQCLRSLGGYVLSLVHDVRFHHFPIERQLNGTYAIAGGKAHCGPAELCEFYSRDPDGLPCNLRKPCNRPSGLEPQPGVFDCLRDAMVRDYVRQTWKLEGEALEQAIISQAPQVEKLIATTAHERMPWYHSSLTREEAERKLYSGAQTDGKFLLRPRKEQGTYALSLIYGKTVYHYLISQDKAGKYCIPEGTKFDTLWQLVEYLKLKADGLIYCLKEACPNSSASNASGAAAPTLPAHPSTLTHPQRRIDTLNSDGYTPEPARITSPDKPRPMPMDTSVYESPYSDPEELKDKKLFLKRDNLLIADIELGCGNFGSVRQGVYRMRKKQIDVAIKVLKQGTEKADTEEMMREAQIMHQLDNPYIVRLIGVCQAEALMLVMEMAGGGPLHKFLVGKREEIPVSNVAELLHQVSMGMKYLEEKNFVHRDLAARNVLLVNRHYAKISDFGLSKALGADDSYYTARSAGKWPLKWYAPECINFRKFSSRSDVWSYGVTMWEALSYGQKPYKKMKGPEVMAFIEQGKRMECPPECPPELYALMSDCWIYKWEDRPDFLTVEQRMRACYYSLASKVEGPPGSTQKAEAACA
Outline: as §5

Kdr = target: T13, Kdr (Homo sapiens, UniProt P35968); assay: Kinase inhibition assay (33P transfer), Kdr; settings: Table 3; read-out: KDR-1
T13 construct: Kinases are expressed as either kinase domains or full length constructs; made in house
Outline: as §5

Itk = target: T14, Itk (Homo sapiens, UniProt Q08881); assay: Kinase inhibition assay (33P transfer), Itk; settings: read-out: Itk-1
T14 construct: Kinases are expressed as either kinase domains or full length constructs; made in house
T14 sequence (Q08881 1-620): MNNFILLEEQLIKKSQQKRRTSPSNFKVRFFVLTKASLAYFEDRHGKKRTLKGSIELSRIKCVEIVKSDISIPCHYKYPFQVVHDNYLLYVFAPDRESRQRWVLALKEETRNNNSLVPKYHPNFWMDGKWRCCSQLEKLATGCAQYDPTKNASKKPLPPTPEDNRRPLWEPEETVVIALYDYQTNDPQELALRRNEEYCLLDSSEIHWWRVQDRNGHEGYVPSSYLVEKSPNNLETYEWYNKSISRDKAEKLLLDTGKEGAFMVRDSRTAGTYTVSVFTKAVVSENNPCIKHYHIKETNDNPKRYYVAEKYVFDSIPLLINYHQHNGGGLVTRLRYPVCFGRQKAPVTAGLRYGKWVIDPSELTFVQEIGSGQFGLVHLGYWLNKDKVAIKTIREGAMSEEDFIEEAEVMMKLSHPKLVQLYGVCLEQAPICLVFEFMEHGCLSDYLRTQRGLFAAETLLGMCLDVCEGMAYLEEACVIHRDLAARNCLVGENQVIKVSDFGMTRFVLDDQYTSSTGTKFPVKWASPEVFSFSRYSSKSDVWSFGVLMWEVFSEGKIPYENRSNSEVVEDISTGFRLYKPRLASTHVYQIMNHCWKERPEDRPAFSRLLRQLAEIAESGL
Outline: as §1

Fyn = target: T15, Fyn (Homo sapiens, UniProt P06241); assay: Kinase inhibition assay (33P transfer), Fyn; settings: read-out: Fyn-1
T15 construct: Kinases are expressed as either kinase domains or full length constructs; made in house
Description: as §2, §3, §4

ErbB4 = target: T16, ErbB4 (Homo sapiens, UniProt Q15303); assay: Kinase inhibition assay (33P transfer), ErbB4; settings: read-out: ErbB4-1
T16 construct: Kinases are expressed as either kinase domains or full length constructs; made in house

ErbB2 = target: T17, ErbB2 (Homo sapiens, UniProt P04626); assay: Kinase inhibition assay (33P transfer), ErbB2; settings: read-out: ErbB2-2
T17 construct: Kinases are expressed as either kinase domains or full length constructs; made in house
Outline: as §1

IGFR-1 [1] = target: T18, IGFR-1 (Homo sapiens, UniProt P08069); assay: Kinase inhibition assay, IGFR-1 (Table 2); settings: Table 2, kinase inhibition class
T18 construct: Kinases are expressed as either kinase domains or full length constructs; made in house

IGFR-1 [2] = target: T18, IGFR-1; assay: Kinase inhibition assay (33P transfer), IGFR-1; settings: Table 2, kinase inhibition class

T3 sequence (P12931 whole entry, species assumed, the tested form may be a part): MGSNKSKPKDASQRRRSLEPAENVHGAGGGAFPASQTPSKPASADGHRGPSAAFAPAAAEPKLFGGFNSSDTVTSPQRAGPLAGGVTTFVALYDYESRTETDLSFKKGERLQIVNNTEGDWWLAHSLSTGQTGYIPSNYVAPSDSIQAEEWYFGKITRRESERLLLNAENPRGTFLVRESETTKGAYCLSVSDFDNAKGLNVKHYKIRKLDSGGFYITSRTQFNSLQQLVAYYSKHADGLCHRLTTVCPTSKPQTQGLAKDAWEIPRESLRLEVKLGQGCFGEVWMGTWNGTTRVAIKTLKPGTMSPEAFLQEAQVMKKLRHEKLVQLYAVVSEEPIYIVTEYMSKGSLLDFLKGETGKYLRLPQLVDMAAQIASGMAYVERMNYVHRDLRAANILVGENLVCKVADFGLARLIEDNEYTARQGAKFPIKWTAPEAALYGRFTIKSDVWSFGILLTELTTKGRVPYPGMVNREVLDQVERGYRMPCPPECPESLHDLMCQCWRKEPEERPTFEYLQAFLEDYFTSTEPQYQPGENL
T2 sequence (P09619 33-1106, species assumed): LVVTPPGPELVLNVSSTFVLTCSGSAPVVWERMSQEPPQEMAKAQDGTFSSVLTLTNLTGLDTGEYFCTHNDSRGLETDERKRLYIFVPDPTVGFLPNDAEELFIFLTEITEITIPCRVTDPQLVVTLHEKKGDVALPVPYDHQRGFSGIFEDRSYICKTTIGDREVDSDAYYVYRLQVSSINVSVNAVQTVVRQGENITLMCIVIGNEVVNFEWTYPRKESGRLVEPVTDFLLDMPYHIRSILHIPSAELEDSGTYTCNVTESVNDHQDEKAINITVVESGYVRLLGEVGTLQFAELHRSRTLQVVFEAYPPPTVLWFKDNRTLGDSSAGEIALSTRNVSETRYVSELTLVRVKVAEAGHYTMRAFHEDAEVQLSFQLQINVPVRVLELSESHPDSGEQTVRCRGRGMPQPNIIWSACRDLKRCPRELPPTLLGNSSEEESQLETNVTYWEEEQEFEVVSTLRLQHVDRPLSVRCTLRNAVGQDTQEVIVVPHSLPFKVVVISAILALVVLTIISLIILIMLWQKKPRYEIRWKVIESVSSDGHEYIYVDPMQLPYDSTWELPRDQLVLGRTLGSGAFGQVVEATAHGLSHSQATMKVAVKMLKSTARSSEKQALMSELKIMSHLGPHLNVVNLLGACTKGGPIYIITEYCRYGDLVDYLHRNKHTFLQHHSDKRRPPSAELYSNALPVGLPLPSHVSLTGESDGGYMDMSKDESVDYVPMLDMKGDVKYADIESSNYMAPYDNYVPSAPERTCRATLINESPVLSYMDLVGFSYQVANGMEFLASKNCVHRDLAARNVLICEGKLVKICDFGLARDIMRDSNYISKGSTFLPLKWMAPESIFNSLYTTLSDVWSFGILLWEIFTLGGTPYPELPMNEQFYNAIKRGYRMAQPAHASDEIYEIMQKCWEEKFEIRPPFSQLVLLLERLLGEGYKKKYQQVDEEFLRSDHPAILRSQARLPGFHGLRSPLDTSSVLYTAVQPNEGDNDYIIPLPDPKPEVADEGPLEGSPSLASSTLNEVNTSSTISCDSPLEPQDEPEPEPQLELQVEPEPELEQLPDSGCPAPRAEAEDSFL
T16 sequence (Q15303 26-1308, species assumed): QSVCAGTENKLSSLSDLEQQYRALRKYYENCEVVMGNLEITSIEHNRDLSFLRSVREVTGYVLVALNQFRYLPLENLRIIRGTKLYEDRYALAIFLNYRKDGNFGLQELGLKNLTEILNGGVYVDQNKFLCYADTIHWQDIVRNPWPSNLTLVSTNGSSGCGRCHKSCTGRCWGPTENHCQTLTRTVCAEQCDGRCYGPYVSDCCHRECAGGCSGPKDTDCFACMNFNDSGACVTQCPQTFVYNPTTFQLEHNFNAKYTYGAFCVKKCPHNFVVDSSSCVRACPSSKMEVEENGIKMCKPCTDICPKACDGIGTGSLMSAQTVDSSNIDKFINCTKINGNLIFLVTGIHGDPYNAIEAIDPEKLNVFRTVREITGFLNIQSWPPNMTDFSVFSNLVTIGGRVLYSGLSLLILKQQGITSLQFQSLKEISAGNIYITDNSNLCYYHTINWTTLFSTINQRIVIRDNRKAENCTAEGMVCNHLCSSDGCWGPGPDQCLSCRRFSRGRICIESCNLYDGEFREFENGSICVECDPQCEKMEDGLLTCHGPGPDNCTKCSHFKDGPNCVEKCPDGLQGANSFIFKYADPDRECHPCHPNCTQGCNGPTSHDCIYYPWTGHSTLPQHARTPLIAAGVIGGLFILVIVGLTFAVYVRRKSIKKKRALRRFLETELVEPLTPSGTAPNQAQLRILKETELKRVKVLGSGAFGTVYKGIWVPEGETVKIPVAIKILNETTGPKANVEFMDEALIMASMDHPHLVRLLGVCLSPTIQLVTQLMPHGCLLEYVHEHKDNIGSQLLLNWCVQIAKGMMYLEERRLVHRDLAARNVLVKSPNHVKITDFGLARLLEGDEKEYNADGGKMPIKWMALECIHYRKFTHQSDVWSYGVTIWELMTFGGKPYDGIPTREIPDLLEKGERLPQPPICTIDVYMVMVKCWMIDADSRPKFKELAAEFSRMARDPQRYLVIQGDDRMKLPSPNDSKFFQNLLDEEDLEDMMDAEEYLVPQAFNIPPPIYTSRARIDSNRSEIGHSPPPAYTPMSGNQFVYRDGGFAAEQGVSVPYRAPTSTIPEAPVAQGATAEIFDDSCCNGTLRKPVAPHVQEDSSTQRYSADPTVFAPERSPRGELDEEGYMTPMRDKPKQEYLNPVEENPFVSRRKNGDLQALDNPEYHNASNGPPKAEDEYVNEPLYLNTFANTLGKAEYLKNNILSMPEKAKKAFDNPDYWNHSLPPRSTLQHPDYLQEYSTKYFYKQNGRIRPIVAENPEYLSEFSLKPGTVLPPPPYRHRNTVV
T15 sequence (P06241 whole entry, species assumed, the tested form may be a part): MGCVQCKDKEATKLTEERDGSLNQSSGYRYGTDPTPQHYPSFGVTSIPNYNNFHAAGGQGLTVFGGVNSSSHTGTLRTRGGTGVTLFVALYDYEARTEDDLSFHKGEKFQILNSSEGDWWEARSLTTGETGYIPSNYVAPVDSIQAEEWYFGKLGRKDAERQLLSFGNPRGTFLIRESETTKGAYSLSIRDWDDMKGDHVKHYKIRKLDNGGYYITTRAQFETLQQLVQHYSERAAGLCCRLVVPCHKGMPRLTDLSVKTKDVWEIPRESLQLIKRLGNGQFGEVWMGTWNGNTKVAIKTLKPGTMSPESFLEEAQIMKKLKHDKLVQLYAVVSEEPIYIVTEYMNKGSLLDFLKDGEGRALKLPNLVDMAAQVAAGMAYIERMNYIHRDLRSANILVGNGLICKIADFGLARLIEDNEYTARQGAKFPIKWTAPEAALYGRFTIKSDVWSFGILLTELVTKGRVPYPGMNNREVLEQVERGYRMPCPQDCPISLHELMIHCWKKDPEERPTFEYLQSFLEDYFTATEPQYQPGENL
T9 sequence (P11362 22-822, species assumed): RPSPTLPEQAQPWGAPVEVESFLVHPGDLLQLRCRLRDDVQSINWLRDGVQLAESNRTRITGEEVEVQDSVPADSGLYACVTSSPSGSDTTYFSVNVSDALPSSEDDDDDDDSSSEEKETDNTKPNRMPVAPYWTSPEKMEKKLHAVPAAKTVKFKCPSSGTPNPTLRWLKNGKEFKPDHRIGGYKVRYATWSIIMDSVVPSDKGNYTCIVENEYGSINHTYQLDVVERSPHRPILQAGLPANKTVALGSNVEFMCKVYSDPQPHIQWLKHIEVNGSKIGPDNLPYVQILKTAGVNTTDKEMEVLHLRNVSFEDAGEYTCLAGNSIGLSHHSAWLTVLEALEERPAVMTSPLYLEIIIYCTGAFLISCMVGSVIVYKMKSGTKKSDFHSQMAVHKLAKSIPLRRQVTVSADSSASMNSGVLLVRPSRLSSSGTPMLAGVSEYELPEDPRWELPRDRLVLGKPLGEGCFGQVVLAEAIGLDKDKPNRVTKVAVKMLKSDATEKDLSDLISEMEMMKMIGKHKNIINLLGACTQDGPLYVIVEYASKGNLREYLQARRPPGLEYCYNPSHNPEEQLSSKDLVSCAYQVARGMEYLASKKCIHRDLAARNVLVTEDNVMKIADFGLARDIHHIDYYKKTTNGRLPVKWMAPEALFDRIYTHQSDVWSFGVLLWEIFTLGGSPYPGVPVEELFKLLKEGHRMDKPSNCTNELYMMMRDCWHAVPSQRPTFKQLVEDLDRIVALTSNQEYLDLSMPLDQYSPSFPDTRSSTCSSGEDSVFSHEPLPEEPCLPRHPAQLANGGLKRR
T8 sequence (P06239 whole entry, species assumed, the tested form may be a part): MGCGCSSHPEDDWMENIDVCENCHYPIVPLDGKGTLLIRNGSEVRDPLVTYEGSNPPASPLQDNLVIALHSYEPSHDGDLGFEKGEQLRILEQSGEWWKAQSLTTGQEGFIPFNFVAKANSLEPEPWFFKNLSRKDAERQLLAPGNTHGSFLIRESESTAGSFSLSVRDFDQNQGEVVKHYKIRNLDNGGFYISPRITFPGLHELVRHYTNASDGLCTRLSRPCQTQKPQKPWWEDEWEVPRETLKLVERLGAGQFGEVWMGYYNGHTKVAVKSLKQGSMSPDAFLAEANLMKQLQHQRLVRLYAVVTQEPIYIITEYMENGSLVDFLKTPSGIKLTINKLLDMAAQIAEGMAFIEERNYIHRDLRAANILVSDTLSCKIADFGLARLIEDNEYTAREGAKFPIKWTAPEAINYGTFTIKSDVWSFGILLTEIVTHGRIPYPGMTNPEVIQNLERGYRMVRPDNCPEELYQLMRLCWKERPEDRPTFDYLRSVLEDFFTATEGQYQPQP

Row | pIC50 (EGFR) | pIC50 (PDGFRB) | pIC50 (Src) | pIC50 (c-Met) | pIC50 (AKT) | pIC50 (Tek) | pIC50 (Hck-1) | pIC50 (Lck) | pIC50 (FGFR1) | pIC50 (Flt-1) | pIC50 (Lyn) | pIC50 (Zap-70; Table 3) | pIC50 (Kdr) | pIC50 (Itk; Table 3) | pIC50 (Fyn) | pIC50 (ErbB4) | SMILES | further results
1 | < 4.99 | > 6.04 | 5.26 to 6.04 | < 4.99 | < 4.99 | < 4.99 | < 4.99 | > 6.04 | > 6.04 | 5.26 to 6.04 | > 6.04 | < 4.99 | > 6.04 | < 4.99 | 5.26 to 6.04 | < 4.99 | COc1cc(Nc2ncnc(-n3c(NC(C)C)nc4ccccc43)n2)cc(OC)c1OC [Compound 403] | 
2 | < 4.96 | > 6.01 | 5.23 to 6.01 | < 4.96 | < 4.96 | < 4.96 | < 4.96 | > 6.01 | > 6.01 | 5.23 to 6.01 | 5.23 to 6.01 | < 4.96 | > 6.01 | < 4.96 | 5.07 to 5.23 | < 4.96 | CNc1nc2ccccc2n1-c1ncnc(Nc2cc(OC)c(OC)c(OC)c2)n1 [Compound 417] | 
3 | 5.30 to 6.07 | > 6.07 | 5.30 to 6.07 | 5.30 to 6.07 | < 5.02 | 5.30 to 6.07 | 5.30 to 6.07 | 5.30 to 6.07 | > 6.07 | > 6.07 | 5.30 to 6.07 | 5.30 to 6.07 | > 6.07 | > 6.07 | 5.30 to 6.07 | 5.30 to 6.07 | COc1cc(Nc2ncnc(-n3c(Nc4cc(C)n[nH]4)nc4ccccc43)n2)cc(OC)c1OC [Compound 401] | 

Further lines, the molecule ahead of its results:

Row | SMILES | pIC50 (EGFR) | pIC50 (PDGFRB) | pIC50 (Src) | pIC50 (c-Met) | pIC50 (AKT) | pIC50 (Tek) | pIC50 (Hck-1) | pIC50 (Lck) | pIC50 (FGFR1) | pIC50 (Flt-1) | pIC50 (Lyn) | pIC50 (Zap-70; Table 3) | pIC50 (Kdr) | pIC50 (Itk; Table 3) | pIC50 (Fyn) | pIC50 (ErbB4) | further results
4 | COc1cc(Nc2ncnc(N3CCCc4cc(C)ccc43)n2)cc(OC)c1OC [Compound 498] | > 6.01 |  | > 6.01 |  | < 4.96 | 4.96 to 5.07 | < 4.96 |  |  |  | > 6.01 |  |  |  |  | 5.23 to 6.01 | pIC50 (ErbB2): 5.23 to 6.01; pIC50 (IGFR-1 [1]): < 4.96; pIC50 (Zap-70): < 4.96; pIC50 (Itk): < 4.96
5 | COc1ccc(Nc2ncnc(Nc3ccc(OC)c(OC)c3)n2)cc1OC [Compound 63] | < 4.93 | 5.20 to 5.98 |  | < 4.93 | < 4.93 | < 4.93 |  | < 4.93 |  |  |  | < 4.93 | 5.20 to 5.98 | < 4.93 |  |  | pIC50 (IGFR-1 [2]): < 4.93
6 | COc1cc(Nc2ncnc(-n3cccc3)n2)cc(OC)c1OC [Compound 182] | < 4.86 | < 4.86 |  | 4.86 to 4.97 |  |  |  | 4.97 to 5.13 | < 4.86 | < 4.86 |  | < 4.86 | > 5.91 | < 4.86 |  |  | 
